Entries after “also recorded” stand apart in the source; their conditions may differ.
Legend:
[1] = system: Human proximal tubules formed on 2D solid surfaces; experiment: Transport assays with fluorescent substrates in tubules formed on 2D solid surfaces; format: cell-based; conditions: 20 h incubation, lucifer yellow 80 μM, rhodamine 123 10 μM, 5,6-carboxyfluorescein 5 μM, BODIPY FL verapamil 5 μM
Protocol: Transport assays: Tubules formed 1-2 weeks after seeding were cultivated in phenol red-free medium supplemented with 80 μM of lucifer yellow (Sigma Aldrich Chemical Corp, Singapore), 10 μM of rhodamine 123 (Invitrogen, Singapore), 5 μM of 5,6-carboxydichlorofluorescein diacetate (5,6-carboxyfluorescein) (Invitrogen) or 5 μM of BODIPY FL verapmil (Invitrogen). Tubules were fixed after 20 h of incubation, and subsequently stained with 4′,6′-diamidino-2′-phenylindole (DAPI).
FIG. 11: Organic anion transport. Human proximal tubules formed on 2D solid surfaces were incubated for 20 h with the organic anions lucifer yellow (A, B; green), rhodamine 123 (C; red), 5,6-carboxyfluorescein (D; green) and BODIPY FL verapamil (F; green). Tubules are fixed before imaging, and the cell nuclei are counterstained with DAPI (blue). […] The arrowhead points to a region that is enlarged in the inset. The DAPI-stained nuclei of the outer cell layer are on the right in the inset. […] Scale bars: 100 μm.

[2] = system: primary rabbit renal proximal tubule cells; conditions: added to confluent rabbit cell cultures for at least 72 hours; TGF-β1 10 ng/ml, EGF 1 nM, RA 0.1 μM; cited from earlier work
[3] = system: primary human renal proximal tubule cells (HPTCs); experiment: TGF-β1 treatment of confluent HPTC patches in Humes basal medium; format: cell-based; conditions: 10 ng/ml TGF-β1 on confluent patches in Humes basal medium
Protocol: The Humes et al. method used primary rabbit proximal tubule cells. The references indicate three factors are necessary in the growth medium for 2D tubulogenesis: (i) transforming growth factor (TGF)-β1; (ii) epidermal growth factor (EGF); and all-trans retinoic acid (RA). The method involves cultivation of primary rabbit renal proximal tubule cells in the following medium: Dulbecco's modified Eagle's:Ham's F-12 media (1:1, v/v) containing L-glutamine, penicillin, streptomycin, 50 nM hydrocortisone, 5 μg/ml of insulin, and 5 μg/ml of transferrin, referred to herein as Humes basal medium.
In a second set of experiments cells were again cultivated in Humes basal medium. In accordance with the previous results, massive cell death occurred although some cells survived and formed some confluent patches after 2 weeks. By this time cell growth was very slow and overall confluency could not be achieved. However, the confluent patches were treated with 10 ng/ml TGF-β1 in accordance with the Humes et al. method.

[4] = system: primary human renal proximal tubule cells (HPTCs); experiment: TGF-β1 treatment of confluent HPTC monolayers in complete HPTC medium; format: cell-based
Protocol: Cell culture: Different batches of HPTCs were obtained from ScienCell Research Laboratories (Carlsbad, Calif., USA). Cells were cultivated in basal epithelial cell medium supplemented with 2% fetal bovine serum (FBS) and 1% epithelial cell growth supplement (ScienCell Research Laboratories). In some experiments, TGF-β1 (R&D Systems, Minneapolis, Minn., USA) was added at a concentration of 10 ng/ml after monolayer formation.
FIG. 17: Growth factor expression and effects of TGF-β1. (A) The expression levels of TGF-β1, α-SMA, LIF, FGF2, KGF and HGF are monitored over a period of 4 weeks. […] Panels B-D show the cells treated for 3 days with 10 ng/ml TGF-β1 after monolayer formation. […] Scale bar: 500
A fourth experimental series was performed with our HPTC medium containing all supplements including FBS. HPTCs were grown to confluency and then treated with TGF-β1 (10 ng/ml; same concentration as used for the rabbit cells). After three days massive cords and aggregates of cells with an elongated, myofibroblastic morphology had formed in 6/6 wells. Although in the complete HPTC medium with FBS, cords and cell aggregates also form without the addition of extra TGF-β1, such structures formed more consistently after addition of TGF-β1. […]

Compound	localisation of the fluorescent substrate after incubation (transport across tubular epithelium) [1]	structures formed from confluent monolayer [2]	further results
lucifer yellow	the lumen is strongly labeled; also recorded: became enriched in the tubular lumen		
rhodamine 123	became enriched in the tubular lumen		localisation of the fluorescent substrate after incubation (transport across tubular epithelium) ([1]; listed as Rhodamine 123): enriched in the tubular lumen
EGF: epidermal growth factor (NSDSECPLSHDGYCLHDGVCMYIEALDKYACNCVVGYIGERCQYRDLKWWELR; UniProt P01133 971-1023, looked up)		no dramatic effects on the monolayer	
CC1=C(/C=C/C(C)=C/C=C/C(C)=C/C(=O)O)C(C)(C)CCC1 [RA, all-trans retinoic acid]		no dramatic effects on the monolayer	
TGF-β1: transforming growth factor β1 (R&D Systems), 10 ng/ml		formation of solid aggregates of adherent cells (no lumen)	effect on the monolayer, cord and tubule formation [3]: no obvious effect on the monolayer and no cord and tubule formation was observed; wells with massive cords and aggregates of cells of myofibroblastic morphology ([4]; 10 ng/ml TGF-β1, after three days, complete HPTC medium with FBS): 6/6; effect on the monolayer ([4]; 10 ng/ml TGF-β1 for 3 days after monolayer formation): induces rearrangements leading to the formation of condensed stripes of cells and areas devoid of cells; also recorded: rearrangement of the monolayer into a condensed stripe of cells and to the formation of cell aggregates
5,6-carboxydichlorofluorescein diacetate [5,6-carboxyfluorescein]	enriched in the tubular interior; also recorded: became enriched in the tubular lumen		
BODIPY FL verapamil	enriched in the cytoplasm of tubular and monolayer cells		localisation of the fluorescent substrate after incubation (transport across tubular epithelium) ([1]; listed as BOPIPY FL verapamil): became enriched within the cells

Reference: US20110236874A1, “METHOD FOR FORMATION OF RENAL TUBULES” (priority 2008, published 2011)
